Tests used:
SW-620 = assay: Growth inhibition of human SW620 cells at 10 uM incubated for 48 hrs by sulforhodamine B assay relative to control; type: functional; settings: SW-620, 48 h, read-out: GI
MOLT-4 = assay: Growth inhibition of human MOLT4 cells at 10 uM incubated for 48 hrs by sulforhodamine B assay relative to control; type: functional; settings: MOLT-4, 48 h, read-out: GI
NCI-H322M = assay: Growth inhibition of human NCI-H322M cells at 10 uM incubated for 48 hrs by sulforhodamine B assay relative to control; type: functional; settings: read-out: GI
NCI-H522 = assay: Growth inhibition of human NCI-H522 cells at 10 uM incubated for 48 hrs by sulforhodamine B assay relative to control; type: functional; settings: NCI-H522, 48 h, read-out: GI
RPMI-8226 = assay: Growth inhibition of human RPMI8226 cells at 10 uM incubated for 48 hrs by sulforhodamine B assay relative to control; type: functional; settings: RPMI-8226, 48 h, read-out: GI
Carbonic anhydrase 12 = Carbonic anhydrase 12 (Homo sapiens, UniProt O43570); assay: Inhibition of recombinant human carbonic anhydrase 12 preincubated for 15 mins by phenol red dye based stopped flow CO2 hydration assay
Sequence of Carbonic anhydrase 12 (O43570 whole entry): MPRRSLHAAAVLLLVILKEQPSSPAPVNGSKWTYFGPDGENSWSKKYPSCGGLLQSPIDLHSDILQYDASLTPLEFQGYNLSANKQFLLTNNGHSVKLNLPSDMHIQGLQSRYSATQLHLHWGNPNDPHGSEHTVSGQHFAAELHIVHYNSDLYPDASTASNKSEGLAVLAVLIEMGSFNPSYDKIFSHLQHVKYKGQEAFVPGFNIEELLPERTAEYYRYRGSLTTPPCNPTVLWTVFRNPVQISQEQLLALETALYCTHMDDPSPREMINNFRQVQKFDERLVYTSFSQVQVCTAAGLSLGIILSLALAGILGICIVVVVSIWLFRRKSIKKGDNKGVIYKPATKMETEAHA

M14 = assay: Growth inhibition of human M14 cells at 10 uM incubated for 48 hrs by sulforhodamine B assay relative to control; type: functional; settings: M14, 48 h, read-out: GI
[1] = target: Cyclin-dependent kinase 2/cyclin E1 (Homo sapiens, UniProt P24941); assay: Inhibition of human recombinant CDK2/Cyclin E expressed in baculovirus infected Sf9 cells using histone H1 substrate in presence of [gamma33P]ATP
OVCAR-4 = assay: Growth inhibition of human OVCAR4 cells at 10 uM incubated for 48 hrs by sulforhodamine B assay relative to control; type: functional; settings: OVCAR-4, 48 h, read-out: GI
RXF 393 = assay: Growth inhibition of human RXF393 cells at 10 uM incubated for 48 hrs by sulforhodamine B assay relative to control; type: functional; settings: RXF 393, 48 h, read-out: GI
SK-OV-3 = assay: Growth inhibition of human SKOV3 cells at 10 uM incubated for 48 hrs by sulforhodamine B assay relative to control; type: functional; settings: SK-OV-3, 48 h, read-out: GI
NCI/ADR-RES = assay: Growth inhibition of human NCI/ADR-RES cells at 10 uM incubated for 48 hrs by sulforhodamine B assay relative to control; type: functional; settings: read-out: GI
Hs-578T = assay: Growth inhibition of human Hs 578T cells at 10 uM incubated for 48 hrs by sulforhodamine B assay relative to control; type: functional; settings: read-out: GI
K562 = assay: Growth inhibition of human K562 cells at 10 uM incubated for 48 hrs by sulforhodamine B assay relative to control; type: functional; settings: K562, 48 h, read-out: GI
UO-31 = assay: Growth inhibition of human UO31 cells at 10 uM incubated for 48 hrs by sulforhodamine B assay relative to control; type: functional; settings: UO-31, 48 h, read-out: GI
ACHN = assay: Growth inhibition of human ACHN cells at 10 uM incubated for 48 hrs by sulforhodamine B assay relative to control; type: functional; settings: read-out: GI
Carbonic anhydrase 2 = Carbonic anhydrase 2 (Homo sapiens, UniProt P00918); assay: Inhibition of recombinant human carbonic anhydrase 2 preincubated for 15 mins by phenol red dye based stopped flow CO2 hydration assay
HOP-62 = assay: Growth inhibition of human HOP62 cells at 10 uM incubated for 48 hrs by sulforhodamine B assay relative to control; type: functional; settings: HOP-62, 48 h, read-out: GI
PC-3 = assay: Growth inhibition of human PC3 cells at 10 uM incubated for 48 hrs by sulforhodamine B assay relative to control; type: functional; settings: PC-3, 48 h, read-out: GI
IGROV-1 = assay: Growth inhibition of human IGROV1 cells at 10 uM incubated for 48 hrs by sulforhodamine B assay relative to control; type: functional; settings: IGROV-1, 48 h, read-out: GI
HCT-116 = assay: Growth inhibition of human HCT116 cells at 10 uM incubated for 48 hrs by sulforhodamine B assay relative to control; type: functional; settings: HCT-116, 48 h, read-out: GI
NCI-H460 = assay: Growth inhibition of human NCI-H460 cells at 10 uM incubated for 48 hrs by sulforhodamine B assay relative to control; type: functional; settings: NCI-H460, 48 h, read-out: GI
Carbonic anhydrase 1 = Carbonic anhydrase 1 (Homo sapiens, UniProt P00915); assay: Inhibition of recombinant human carbonic anhydrase 1 preincubated for 15 mins by phenol red dye based stopped flow CO2 hydration assay
Sequence of Carbonic anhydrase 1 (P00915 whole entry): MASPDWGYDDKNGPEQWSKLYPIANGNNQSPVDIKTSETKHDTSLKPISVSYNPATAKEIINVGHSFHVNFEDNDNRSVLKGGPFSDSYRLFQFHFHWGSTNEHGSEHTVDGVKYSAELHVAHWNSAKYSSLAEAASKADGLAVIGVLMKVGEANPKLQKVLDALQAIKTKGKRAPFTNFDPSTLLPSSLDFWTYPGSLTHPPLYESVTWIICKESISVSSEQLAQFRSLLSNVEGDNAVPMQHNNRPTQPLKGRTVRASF

OVCAR-3 = assay: Growth inhibition of human OVCAR3 cells at 10 uM incubated for 48 hrs by sulforhodamine B assay relative to control; type: functional; settings: OVCAR-3, 48 h, read-out: GI
MDA-MB-231 = assay: Growth inhibition of human MDA-MB-231 cells at 10 uM incubated for 48 hrs by sulforhodamine B assay relative to control; type: functional; settings: MDA-MB-231, 48 h, read-out: GI
OVCAR-5 = assay: Growth inhibition of human OVCAR5 cells at 10 uM incubated for 48 hrs by sulforhodamine B assay relative to control; type: functional; settings: OVCAR-5, 48 h, read-out: GI
SF-539 = assay: Growth inhibition of human SF539 cells at 10 uM incubated for 48 hrs by sulforhodamine B assay relative to control; type: functional; settings: SF-539, 48 h, read-out: GI
Malme-3M = assay: Growth inhibition of human MALME-3M cells at 10 uM incubated for 48 hrs by sulforhodamine B assay relative to control; type: functional; settings: read-out: GI
CAKI-1 = assay: Growth inhibition of human Caki1 cells at 10 uM incubated for 48 hrs by sulforhodamine B assay relative to control; type: functional; settings: CAKI-1, 48 h, read-out: GI
SNB-75 = assay: Growth inhibition of human SNB75 cells at 10 uM incubated for 48 hrs by sulforhodamine B assay relative to control; type: functional; settings: SNB-75, 48 h, read-out: GI
OVCAR-8 = assay: Growth inhibition of human OVCAR8 cells at 10 uM incubated for 48 hrs by sulforhodamine B assay relative to control; type: functional; settings: OVCAR-8, 48 h, read-out: GI
HCT-15 = assay: Growth inhibition of human HCT15 cells at 10 uM incubated for 48 hrs by sulforhodamine B assay relative to control; type: functional; settings: HCT-15, 48 h, read-out: GI
T47D = assay: Growth inhibition of human T47D cells at 10 uM incubated for 48 hrs by sulforhodamine B assay relative to control; type: functional; settings: read-out: GI
SK-MEL-5 = assay: Growth inhibition of human SK-MEL-5 cells at 10 uM incubated for 48 hrs by sulforhodamine B assay relative to control; type: functional; settings: SK-MEL-5, 48 h, read-out: GI
SR = assay: Growth inhibition of human SR cells at 10 uM incubated for 48 hrs by sulforhodamine B assay relative to control; type: functional; settings: read-out: GI
NCI-H226 = assay: Growth inhibition of human NCI-H226 cells at 10 uM incubated for 48 hrs by sulforhodamine B assay relative to control; type: functional; settings: NCI-H226, 48 h, read-out: GI

Row | Compound | inhibition of growth at 10 µM (SW-620) [%] | inhibition of growth at 10 µM (MOLT-4) [%] | inhibition of growth at 10 µM (NCI-H322M) [%] | inhibition of growth at 10 µM (NCI-H522) [%] | inhibition of growth at 10 µM (RPMI-8226) [%] | Ki (Carbonic anhydrase 12) [nM] | inhibition of growth at 10 µM (M14) [%] | IC50 [1] [nM] | inhibition of growth at 10 µM (OVCAR-4) [%] | inhibition of growth at 10 µM (RXF 393) [%] | inhibition of growth at 10 µM (SK-OV-3) [%] | inhibition of growth at 10 µM (NCI/ADR-RES) [%] | inhibition of growth at 10 µM (Hs-578T) [%] | inhibition of growth at 10 µM (K562) [%] | inhibition of growth at 10 µM (UO-31) [%] | inhibition of growth at 10 µM (ACHN) [%] | Ki (Carbonic anhydrase 2) [nM] | inhibition of growth at 10 µM (HOP-62) [%] | inhibition of growth at 10 µM (PC-3) [%] | inhibition of growth at 10 µM (IGROV-1) [%] | other results
1 | CCOC(=O)CN1C(=O)/C(=N\Nc2ccc(S(N)(=O)=O)cc2)c2cc(Br)ccc21 | 37 | 23 | 23 | 29 | 21 | 49.5 | 12 | > 10000 | 69 | 57 | 18 | 10 | 10 | 35 | 13 | 15 | 630 | 35 | 29 | 27 | inhibition of growth at 10 µM (HCT-116): 86%; inhibition of growth at 10 µM (NCI-H460): 56%; Ki (Carbonic anhydrase 1): > 10000 nM; inhibition of growth at 10 µM (OVCAR-3): 15%; inhibition of growth at 10 µM (MDA-MB-231): 33%; inhibition of growth at 10 µM (OVCAR-5): 14%; inhibition of growth at 10 µM (SF-539): 84%; inhibition of growth at 10 µM (Malme-3M): 21%; inhibition of growth at 10 µM (CAKI-1): 14%; inhibition of growth at 10 µM (SNB-75): 22%; inhibition of growth at 10 µM (OVCAR-8): 44%; inhibition of growth at 10 µM (HCT-15): 15%; inhibition of growth at 10 µM (T47D): 22%; inhibition of growth at 10 µM (SK-MEL-5): 12%; inhibition of growth at 10 µM (SR): 25%; inhibition of growth at 10 µM (NCI-H226): 14%
2 | NS(=O)(=O)c1ccc(N/N=C2\C(=O)N(Cc3ccccc3)c3ccc(Cl)cc32)cc1 | 20 | 28 | 16 | 31 | 10 | 33.7 | 12 | > 10000 | 71 | 55 | 26 | 18 | 55 | 18 | 19 | 35 | 52.7 | 36 | 16 | 16 | inhibition of growth at 10 µM (HCT-116): 31%; inhibition of growth at 10 µM (NCI-H460): 35%; Ki (Carbonic anhydrase 1): 4830 nM; inhibition of growth at 10 µM (OVCAR-3): 11%; inhibition of growth at 10 µM (MDA-MB-231): 24%; inhibition of growth at 10 µM (OVCAR-5): 13%; inhibition of growth at 10 µM (SF-539): 39%; inhibition of growth at 10 µM (Malme-3M): 30%; inhibition of growth at 10 µM (CAKI-1): 36%; inhibition of growth at 10 µM (SNB-75): 22%; inhibition of growth at 10 µM (OVCAR-8): 35%; inhibition of growth at 10 µM (HCT-15): 11%; inhibition of growth at 10 µM (T47D): 21%; inhibition of growth at 10 µM (SK-MEL-5): 20%; inhibition of growth at 10 µM (SR): 40%; inhibition of growth at 10 µM (NCI-H226): 66%

From ChEMBL document CHEMBL4311999, “3-Hydrazinoisatin-based benzenesulfonamides as novel carbonic anhydrase inhibitors endowed with anticancer activity: Synthesis, in vitro biological evaluation and in silico insights” (Eur J Med Chem, 2019)
